This assay deals with human Factor XIa (Homo sapiens (Human), UniProt P03951). Description: Factor XIa Assay. The assay is classed as biochemical. Particulars: purified human Factor XIa 40 pM, Z-Gly-Pro-Arg-AFC 100 μM, pH 7.4; read-out: FXIa Ki. The procedure:
The effectiveness of a compound of the present invention as an inhibitor of Coagulation Factor XIa can be determined using a relevant purified serine protease, and an appropriate synthetic substrate. The rate of hydrolysis of the chromogenic or fluorogenic substrate by the relevant serine protease was measured both in the absence and presence of compounds of the present invention. Assays were conducted at room temperature or at 37° C. […] A decrease in the rate of fluorescence change in the presence of inhibitor is indicative of enzyme inhibition. Such methods are known to one skilled in the art. The results of this assay are expressed as the inhibitory constant, Ki.
Factor XIa determinations were made in 50 mM HEPES buffer at pH 7.4 containing 150 mM NaCl, 5 mM CaCl2, and 0.1% PEG 8000 (polyethylene glycol; JT Baker or Fisher Scientific). Determinations were made using purified human Factor XIa at a final concentration of 40 pM (Sekisui Diagnostics) and he synthetic substrate, Z-Gly-Pro-Arg-AFC, TFA salt (Sigma #C0980) at a concentration of 100 μM.
Times required to achieve equilibration between enzyme and inhibitor were determined in control experiments. Initial velocities of product formation in the absence (Vo) or presence of inhibitor (Vi) were measured. Assuming competitive inhibition, and that unity is negligible compared Km/[S], [I]/e, and [I]/e (where [S], [I], and e respectively represent the total concentrations, of substrate, inhibitor and enzyme), the equilibrium constant (Ki) for dissociation of the inhibitor from the enzyme can be obtained from the dependence of Vo/Vi on [I] shown in the following equation.

Chain of human Factor XIa (P03951 388-625): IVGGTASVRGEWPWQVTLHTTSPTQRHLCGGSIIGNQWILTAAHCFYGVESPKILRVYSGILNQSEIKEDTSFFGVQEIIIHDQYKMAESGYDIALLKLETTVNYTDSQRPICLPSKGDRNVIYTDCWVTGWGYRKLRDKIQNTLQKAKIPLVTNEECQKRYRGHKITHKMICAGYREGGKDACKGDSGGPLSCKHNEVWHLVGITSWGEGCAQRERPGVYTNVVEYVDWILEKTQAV
Chain of human Factor XIa (P03951 19-387 partner): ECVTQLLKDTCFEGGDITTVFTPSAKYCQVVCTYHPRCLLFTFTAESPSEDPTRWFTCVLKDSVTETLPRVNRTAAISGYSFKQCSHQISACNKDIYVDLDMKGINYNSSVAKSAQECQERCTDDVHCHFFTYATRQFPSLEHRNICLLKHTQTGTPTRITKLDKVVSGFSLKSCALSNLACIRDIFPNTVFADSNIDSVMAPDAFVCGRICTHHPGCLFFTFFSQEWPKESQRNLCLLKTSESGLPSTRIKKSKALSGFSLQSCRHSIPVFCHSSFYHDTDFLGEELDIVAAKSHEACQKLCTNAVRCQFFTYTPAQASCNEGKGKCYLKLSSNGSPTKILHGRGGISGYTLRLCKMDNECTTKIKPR

Regarding `COC(=O)Nc1ccc(C(=O)N[C@@H](Cc2cnc3ccccc3n2)C(=O)N2CCC[C@@]3(C2)OC(=O)Nc2ccc(Cl)c(F)c23)cc1` [Example 69, methyl (4-(((S)-1-((R)-6-chloro-5-fluoro-2-oxo-1,2-dihydrospiro[benzo[d][1,3]oxazine-4,3′-piperidin]-1′-yl)-1-oxo-3-(quinoxalin-2-yl)propan-2-yl)carbamoyl)phenyl)carbamate], the Ki (in general, a dissociation constant, usually derived from enzyme kinetics or from competition with a known ligand) came out at 36.2 nM.
Then `COC(=O)Nc1ccc(C(=O)N[C@@H](Cc2c[nH]c3ccccc23)C(=O)N2CCC[C@@]3(C2)OC(=O)Nc2ccc(Cl)c(F)c23)cc1` [Example 70, methyl (4-(((S)-1-((R)-6-chloro-5-fluoro-2-oxo-1,2-dihydrospiro[benzo[d][1,3]oxazine-4,3′-piperidin]-1′-yl)-3-(1H-indol-3-yl)-1-oxopropan-2-yl)carbamoyl)phenyl)carbamate], with 20.7 nM; and `COC(=O)Nc1ccc(C(=O)N[C@@H](CC2CCC2)C(=O)N2CCC[C@@]3(C2)OC(=O)Nc2ccc(Cl)cc23)cc1` [Example 71, methyl (4-(((S)-1-((R)-6-chloro-2-oxo-1,2-dihydrospiro[benzo[d][1,3]oxazine-4,3′-piperidin]-1′-yl)-3-cyclobutyl-1-oxopropan-2-yl)carbamoyl)phenyl)carbamate], with 50.9 nM; and `COC(=O)Nc1ccc(C(=O)N[C@@H](CC2CCCC2)C(=O)N2CCC[C@@]3(C2)OC(=O)Nc2ccc(Cl)cc23)cc1` [Example 73, methyl (4-(((S)-1-((R)-6-chloro-2-oxo-1,2-dihydrospiro[benzo[d][1,3]oxazine-4,3′-piperidin]-1′-yl)-3-cyclopentyl-1-oxopropan-2-yl)carbamoyl)phenyl)carbamate], with 32 nM.
The result for `COC/C=C/c1ccc(C[C@H](NC(=O)c2ccc(NC(=O)OC)cc2)C(=O)N2CC[C@@]3(C2)OC(=O)Nc2ccc(Cl)cc23)cc1` [Example 80, methyl (4-(((S)-1-((R)-6-chloro-2-oxo-1,2-dihydrospiro[benzo[d][1,3]oxazine-4,3′-pyrrolidin]-1′-yl)-3-(4-((E)-3-methoxyprop-1-en-1-yl)phenyl)-1-oxopropan-2-yl)carbamoyl)phenyl)carbamate] reads 75 nM; that for `COC(=O)Nc1ccc(C(=O)N[C@@H](CC(=O)N2CC(F)(F)C2)C(=O)N2CCC[C@@]3(C2)OC(=O)Nc2ccc(Cl)cc23)cc1` [Example 85, methyl (4-(((S)-1-((R)-6-chloro-2-oxo-1,2-dihydrospiro[benzo[d][1,3]oxazine-4,3′-piperidin]-1′-yl)-4-(3,3-difluoroazetidin-1-yl)-1,4-dioxobutan-2-yl)carbamoyl)phenyl)carbamate], 33.3 nM.
Then `COC(=O)Nc1ccc(C(=O)N[C@@H](CC(=O)NC2CCC2)C(=O)N2CCC[C@@]3(C2)OC(=O)Nc2ccc(Cl)cc23)cc1` [Example 86, methyl (4-(((S)-1-((R)-6-chloro-2-oxo-1,2-dihydrospiro[benzo[d][1,3]oxazine-4,3′-piperidin]-1′-yl)-4-(cyclobutylamino)-1,4-dioxobutan-2-yl)carbamoyl)phenyl)carbamate], with 33.7 nM; and `COC(=O)Nc1ccc(C(=O)N[C@@H](CC(=O)N2CCOCC2)C(=O)N2CC[C@@]3(C2)OC(=O)Nc2ccc(Cl)cc23)cc1` [Example 88, methyl (4-(((S)-1-((R)-6-chloro-2-oxo-1,2-dihydrospiro[benzo[d][1,3]oxazine-4,3′-pyrrolidin]-1′-yl)-4-morpholino-1,4-dioxobutan-2-yl)carbamoyl)phenyl)carbamate], with 20 nM.
Turning to `COC(=O)Nc1ccc(C(=O)N[C@@H](CC(=O)NC2CCOCC2)C(=O)N2CC[C@@]3(C2)OC(=O)Nc2ccc(Cl)cc23)cc1` [Example 89, methyl (4-(((S)-1-((R)-6-chloro-2-oxo-1,2-dihydrospiro[benzo[d][1,3]oxazine-4,3′-pyrrolidin]-1′-yl)-1,4-dioxo-4-((tetrahydro-2H-pyran-4-yl)amino)butan-2-yl)carbamoyl)phenyl)carbamate], the Ki came out at 59.2 nM.
Then `COC(=O)Nc1ccc(C(=O)N[C@@H](CC(=O)Nc2ccccn2)C(=O)N2CC[C@@]3(C2)OC(=O)Nc2ccc(Cl)cc23)cc1` [Example 90, methyl (4-(((S)-1-((R)-6-chloro-2-oxo-1,2-dihydrospiro[benzo[d][1,3]oxazine-4,3′-pyrrolidin]-1′-yl)-1,4-dioxo-4-(pyridin-2-ylamino)butan-2-yl)carbamoyl)phenyl)carbamate], with 57.4 nM; and `COC(=O)Nc1ccc(C(=O)N[C@@H](CC(=O)Nc2ccc(F)cc2)C(=O)N2CC[C@@]3(C2)OC(=O)Nc2ccc(Cl)cc23)cc1` [Example 91, methyl (4-(((S)-1-((R)-6-chloro-2-oxo-1,2-dihydrospiro[benzo[d][1,3]oxazine-4,3′-pyrrolidin]-1′-yl)-4-((4-fluorophenyl)amino)-1,4-dioxobutan-2-yl)carbamoyl)phenyl)carbamate], with 144 nM; and `COC(=O)Nc1ccc(C(=O)N[C@@H](CC(=O)NS(=O)(=O)C2CC2)C(=O)N2CC[C@@]3(C2)OC(=O)Nc2ccc(Cl)cc23)cc1` [Example 92, methyl (4-(((S)-1-((R)-6-chloro-2-oxo-1,2-dihydrospiro[benzo[d][1,3]oxazine-4,3′-pyrrolidin]-1′-yl)-4-(cyclopropanesulfonamido)-1,4-dioxobutan-2-yl)carbamoyl)phenyl)carbamate], with 56.1 nM.
The result for `COC(=O)Nc1ccc(C(=O)N[C@@H](CC(=O)NC2COC2)C(=O)N2CC[C@@]3(C2)OC(=O)Nc2ccc(Cl)cc23)cc1` [Example 93, methyl (4-(((S)-1-((R)-6-chloro-2-oxo-1,2-dihydrospiro[benzo[d][1,3]oxazine-4,3′-pyrrolidin]-1′-yl)-4-(oxetan-3-ylamino)-1,4-dioxobutan-2-yl)carbamoyl)phenyl)carbamate] reads 45.8 nM.
Turning to `COC(=O)Nc1ccc(C(=O)N[C@@H](CC(=O)N2CC(N(C)C)C2)C(=O)N2CCC[C@@]3(C2)OC(=O)Nc2ccc(Cl)cc23)cc1` [Example 96, methyl (4-(((S)-1-((R)-6-chloro-2-oxo-1,2-dihydrospiro[benzo[d][1,3]oxazine-4,3′-piperidin]-1′-yl)-4-(3-(dimethylamino)azetidin-1-yl)-1,4-dioxobutan-2-yl)carbamoyl)phenyl)carbamate], the Ki worked out at 203 nM.
Then `COC(=O)Nc1ccc(C(=O)N[C@@H](CCF)C(=O)N2CCC[C@@]3(C2)OC(=O)Nc2ccc(Cl)cc23)cc1` [Example 103, methyl (4-(((S)-1-((R)-6-chloro-2-oxo-1,2-dihydrospiro[benzo[d][1,3]oxazine-4,3′-piperidin]-1′-yl)-4-fluoro-1-oxobutan-2-yl)carbamoyl)phenyl)carbamate], with 52 nM.
For the compound `COC(=O)Nc1ccc(C(=O)N[C@@H](CC2CCC(F)(F)CC2)C(=O)N2CCC[C@@]3(C2)OC(=O)Nc2ccc(Cl)cc23)cc1` [Example 106, methyl (4-(((S)-1-((R)-6-chloro-2-oxo-1,2-dihydrospiro[benzo[d][1,3]oxazine-4,3′-piperidin]-1′-yl)-3-(4,4-difluorocyclohexyl)-1-oxopropan-2-yl)carbamoyl)phenyl)carbamate], the Ki came out at 16.8 nM.
For `COC(=O)Nc1ccc(C(=O)N[C@@H](CCNC(=O)C2CCC2)C(=O)N2CCC[C@@]3(C2)OC(=O)Nc2ccc(Cl)cc23)cc1` [Example 107, methyl (4-(((S)-1-((R)-6-chloro-2-oxo-1,2-dihydrospiro[benzo[d][1,3]oxazine-4,3′-piperidin]-1′-yl)-4-(cyclobutanecarboxamido)-1-oxobutan-2-yl)carbamoyl)phenyl)carbamate], the inhibitory constant (Ki) came out at 50.7 nM.
Then `COC(=O)Nc1ccc(C(=O)N[C@@H](CCNC(=O)OC2CCC2)C(=O)N2CCC[C@@]3(C2)OC(=O)Nc2ccc(Cl)cc23)cc1` [Example 109, methyl (4-(((S)-1-((R)-6-chloro-2-oxo-1,2-dihydrospiro[benzo[d][1,3]oxazine-4,3′-piperidin]-1′-yl)-4-((cyclobutoxycarbonyl)amino)-1-oxobutan-2-yl)carbamoyl)phenyl)carbamate], with 48.3 nM; and `COC(=O)Nc1ccc(C(=O)N[C@@H](CCN2CCC2)C(=O)N2CC[C@@]3(C2)OC(=O)Nc2ccc(Cl)cc23)cc1` [Example 112, methyl (4-(((S)-4-(azetidin-1-yl)-1-((R)-6-chloro-2-oxo-1,2-dihydrospiro[benzo[d][1,3]oxazine-4,3′-pyrrolidin]-1′-yl)-1-oxobutan-2-yl)carbamoyl)phenyl)carbamate], with 219 nM.
With `O=C1Nc2ccc(Cl)c(F)c2[C@@]2(CCCN(C(=O)[C@H](Cc3cncnc3)NC(=O)c3ccc4[nH]c(=O)ccc4c3)C2)O1` [Example 113, N-((S)-1-((R)-6-chloro-5-fluoro-2-oxo-1,2-dihydrospiro[benzo[d][1,3]oxazine-4,3′-piperidin]-1′-yl)-1-oxo-3-(pyrimidin-5-yl)propan-2-yl)-2-oxo-1,2-dihydroquinoline-6-carboxamide], the inhibition constant Ki is 15.6 nM.

(Values after patent publication US10093683B2, “Factor XIa inhibitors” (Merck Sharp & Dohme Corp., priority 2014, dated 2018).)
